± gives the expanded uncertainty stated by the source.
Conditions: 298.15 K; 101.33 kPa; Liquid; Vibrating tube method

Compound | mass density [kg/m3]
CCCC[N+]1(C)CCCC1.N#CC(=C=[N-])C#N [1-butyl-1-methylpyrrolidinium tricyanomethanide] | 1006.75 ± 1.3
CCCC[N+]1(C)CCOCC1.N#C[C-](C#N)C#N [4-butyl-4-methylmorpholinium tricyanomethanide] | 1067.06 ± 1.3
c1ccccc1 [benzene] | 873.53 ± 1
CCCCCCCCCCO [decan-1-ol] | 826.38 ± 1
Cc1ccccc1 [toluene] | 863.67 ± 1

Next, values leading:

mass density [kg/m3] | Compound
862.97 ± 1 | CCc1ccccc1 [ethylbenzene]
679.55 ± 1 | CCCCCCC [heptane]
814.94 ± 1 | CCCCCCO [hexan-1-ol]
823.27 ± 1 | CCCCCCCCO [octan-1-ol]
1058.48 ± 1 | c1ccsc1 [thiophene]
